Laboratory results reported in patent US7803765B2, “Methods of constructing biodiverse gene fragment libraries and biological modulators isolated therefrom” (Phylogica Limited, priority 2004, dated 2010).
Where no end group is shown, it is not given here.

T1: Id1/E47 interaction (Homo sapiens, UniProt P15923+P41134)
T1 construct: expressed in transfected cells; host or cells: Saccharomyces cerevisiae strain PRT480
T1 sequence (P41134 1-155): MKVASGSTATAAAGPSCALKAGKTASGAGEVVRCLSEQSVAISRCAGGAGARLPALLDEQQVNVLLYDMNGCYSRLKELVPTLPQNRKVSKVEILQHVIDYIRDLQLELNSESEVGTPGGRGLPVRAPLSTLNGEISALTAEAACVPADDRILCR
T1 sequence (P15923 1-651 isoform P15923-2): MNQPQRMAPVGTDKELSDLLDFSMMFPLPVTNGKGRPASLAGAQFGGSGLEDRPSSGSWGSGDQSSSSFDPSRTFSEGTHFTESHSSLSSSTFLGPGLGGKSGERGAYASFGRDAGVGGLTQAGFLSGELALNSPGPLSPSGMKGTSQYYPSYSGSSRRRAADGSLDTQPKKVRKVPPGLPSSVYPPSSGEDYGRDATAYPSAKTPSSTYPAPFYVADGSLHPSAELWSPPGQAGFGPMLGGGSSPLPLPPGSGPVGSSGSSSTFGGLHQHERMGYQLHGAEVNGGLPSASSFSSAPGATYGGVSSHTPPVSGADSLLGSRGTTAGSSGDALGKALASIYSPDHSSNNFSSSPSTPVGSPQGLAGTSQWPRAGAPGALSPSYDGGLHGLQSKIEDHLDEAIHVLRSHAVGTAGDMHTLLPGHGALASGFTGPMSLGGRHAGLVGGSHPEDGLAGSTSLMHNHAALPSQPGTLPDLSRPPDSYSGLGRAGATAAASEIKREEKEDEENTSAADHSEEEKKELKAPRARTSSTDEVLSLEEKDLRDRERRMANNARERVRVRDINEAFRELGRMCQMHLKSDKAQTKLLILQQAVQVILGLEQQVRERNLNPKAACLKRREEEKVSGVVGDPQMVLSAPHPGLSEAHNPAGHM


How the values were obtained:
[1] = system: SCL/E47 interaction; assay: reverse two-hybrid screen for antagonists of the SCL/E47 interaction in yeast; type: cell-based; conditions: re-screened clones
Text: The nucleic acid encoding the E47 protein was cloned into the bait vector pDD (SEQ NO: 61; FIG. 6) in operable connection with the LexA DNA binding domain. The pDD vector also contains a nucleic acid encoding the HIS3 gene (FIG. 6).
These vectors were transformed into the PRT 480 yeast strain (which contains two LexA-CYH2 chimeric reporter genes and two LexA-URA3 counter selectable reporter genes).
The process of screening the library is represented schematically in FIG. 7. […] Approximately 300,000 diploids were plated onto 30 cm plates containing complete synthetic media lacking histidine and tryptophan (ie., HW media), and supplemented with 0.06% (w/v) galactose/0.04% 5-FOA and glucose.
The FOA-resistant colonies were replica-plated from the master-plate onto plates containing HWU media, or media lacking histidine, tryptophan and leucine (ie. HWL media). The replica-plate media also contained various concentrations of galactose.
Library plasmids were re-transformed into strain PRT51, and the resultant yeast cells were again mated with strain PRT 480 SCL/E47 haploids. Diploids were re-screened for their ability to block the SCL/E47 interaction, by plating in the forward direction on plates containing HWU or HWL media supplemented with various concentrations of galactose.

[2] = target: T2, SCL/E2.22F interaction (Homo sapiens, UniProt P15884+P17542); assay: specificity of blocking: two-hybrid in strain PRT480 expressing E2.22F and SCL; type: cell-based; conditions: yeast strain PRT480, specificity control
T2 construct: expressed in transfected cells; host or cells: Saccharomyces cerevisiae strain PRT480
T2 sequence (P17542 whole entry): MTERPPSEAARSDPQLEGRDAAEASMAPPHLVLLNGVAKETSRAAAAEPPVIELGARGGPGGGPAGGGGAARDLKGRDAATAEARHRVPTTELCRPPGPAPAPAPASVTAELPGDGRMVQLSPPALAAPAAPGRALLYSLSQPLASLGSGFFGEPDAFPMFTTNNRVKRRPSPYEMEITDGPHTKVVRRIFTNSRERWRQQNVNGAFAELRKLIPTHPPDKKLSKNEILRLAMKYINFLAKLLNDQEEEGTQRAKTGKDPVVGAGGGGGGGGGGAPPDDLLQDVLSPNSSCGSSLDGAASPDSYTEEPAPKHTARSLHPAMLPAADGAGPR
T2 sequence (P15884 whole entry): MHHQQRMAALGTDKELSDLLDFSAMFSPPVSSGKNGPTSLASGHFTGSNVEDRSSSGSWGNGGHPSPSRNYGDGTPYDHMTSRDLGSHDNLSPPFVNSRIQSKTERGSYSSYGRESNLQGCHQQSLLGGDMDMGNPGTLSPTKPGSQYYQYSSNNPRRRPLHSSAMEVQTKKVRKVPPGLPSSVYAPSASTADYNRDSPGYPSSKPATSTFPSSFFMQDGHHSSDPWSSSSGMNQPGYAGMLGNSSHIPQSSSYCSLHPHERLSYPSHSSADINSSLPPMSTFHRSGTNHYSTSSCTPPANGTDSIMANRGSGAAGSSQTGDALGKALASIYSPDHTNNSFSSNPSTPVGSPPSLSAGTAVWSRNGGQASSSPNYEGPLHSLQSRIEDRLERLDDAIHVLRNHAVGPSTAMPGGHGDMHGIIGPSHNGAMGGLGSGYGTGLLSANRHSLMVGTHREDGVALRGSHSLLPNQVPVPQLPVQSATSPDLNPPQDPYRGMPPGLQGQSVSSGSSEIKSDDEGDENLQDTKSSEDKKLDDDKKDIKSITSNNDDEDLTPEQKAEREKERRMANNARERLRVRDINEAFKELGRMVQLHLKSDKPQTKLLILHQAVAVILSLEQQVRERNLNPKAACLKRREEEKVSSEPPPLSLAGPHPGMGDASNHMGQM
Method: (§1) Subsequently, the specificity of blocking was assayed, by mating those strains that did recapitulate the blocked phenotype into a strain PRT480 expressing two interacting proteins selected from the group consisting of: (i) E2,2 2F and SCL; and (ii) ID and E47.

[3] = target: T1, Id1/E47 interaction; assay: specificity of blocking: two-hybrid in strain PRT480 expressing ID and E47; type: cell-based; conditions: yeast strain PRT480, specificity control
Method: as §1

[4] = system: anti-Der p 1 monoclonal antibody 2C7; assay: T7-DELFIA binding of phage-displayed peptides to panning antibody 2C7; conditions: 50 μl lysate in the standard T7-DELFIA; 500 ng/well 2C7
Method: The monoclonal antibody (approximately 10 μg) was adsorbed to a Petri dish and the amplified phage display library brought into contact with the adsorbed antibody.
The eluate after round three was amplified and ninety-nine individual T7 clones were tested for binding to the panning antibody 2C7 using a dissociation-enhanced ianthinide fluoroimmunoassay (DELFIA) with 500 ng/well 2C7. Assays were performed essentially according to manufacturer's instructions (Perkin Elmer Life Sciences). The first ligand used in the DELFIA was T7lysate (ie the library) (1:2 in assay buffer); second ligand: SIGMA biotinylated anti-T7 monoclonal antibody 1:10,000 (mouse), Strep-Eur+enhancement solution).

[5] = system: monoclonal antibody 2C7; assay: competition DELFIA of 2C7pan clones binding to 2C7; conditions: for inhibition of clone binding to 2C7 by recombinant Der p 1: competitor recombinant Der p 1
Text: Competition DELIFAs were then used to study the interaction between the monoclonal antibody and the peptides identified, using recombinant Der p 1 or the epitope of the 2C7 antibody (GST-P1fragment 98-140 […]) as a competitor.

[6] = system: Der p 1; assay: immunization of mice with 2C7pan phage clones, serum tested by DELFIA and competitive DELFIA; type: in vivo; conditions: for anti-Der p 1 immune response in immunized mice: 10^11 phage particles in Freunds complete adjuvant, bled after first booster, DELFIA; for inhibition of immune serum binding to Der p 1 by recombinant Der p 1: competitive DELFIA, BSA as negative control
Method: The clones, 2C7pan clones 9, 26 and 42, described in Example 8 were then used to immunize mice. Phage were purified by CsCl gradient centrifugation and then used to immunize mice. Each injection consisted of 10^11 phage particles suspended in Freunds complete adjuvant. After the first booster mice were bled and tested by DELFIA for binding to Der p 1. Furthermore, the specificity of the immune response for Der p 1 was tested using competitive DELFIA.

| Molecule | Target interaction SCL/E47 blocked [1] | Target interaction SCL/E2.22F blocked [2] | Target interaction Id1/E47 blocked [3] | TRF (time resolved fluorometry) binding to 2C7 [4] [TRF] | inhibition of clone binding to 2C7 by recombinant Der p 1 [5] | anti-Der p 1 immune response in immunized mice [6] | inhibition of immune serum binding to Der p 1 by recombinant Der p 1 [6] | inhibition of clone binding to 2C7 by GST-P1fragment 98-140 ([5]; competitor GST-P1fragment 98-140 (2C7 epitope)) |
| --- | --- | --- | --- | --- | --- | --- | --- | --- |
| BGF 24: SCL/E47 peptide blocker; fusion peptide SEQ ID NO: 75, fragment-encoded SEQ ID NO: 77; T. maritima fragment (MGKPIPNPLLGLDSTQAMGAPPKKKRKVAEFRSDYKDDDDKLIKHHWVLSIITTASR) | + | − | − |  |  |  |  |  |
| GDP R T H R (GDPRTHR; numbers in words are those of the source; also: displayed on T7 phage) [Clone 2c7pan26] |  |  |  | 8500 | specifically inhibited | an anti-Der p 1 immune response was induced | inhibited by the addition of recombinant Der p 1 |  |
| GDPN S S T S P R (GDPNSSTSPR; numbers in words are those of the source; also: displayed on T7 phage) [Clone 2c7pan8] |  |  |  | 1900 | specifically inhibited |  |  |  |
| BGF 06: SCL/E47 peptide blocker; fusion peptide SEQ ID NO: 67, fragment-encoded SEQ ID NO: 69; A. aeolicus fragment (MGKPIPNPLLGLDSTQAMGAPPKKKRKVAEFRSDYKDDDDKAYHIIAVCFLIKVS) | + | − | − |  |  |  |  |  |
| GDPN S A S G T A (GDPNSASGTA; numbers in words are those of the source; also: displayed on T7 phage) [Clone 2c7pan9] |  |  |  | 17000 | specifically inhibited | an anti-Der p 1 immune response was induced | inhibited by the addition of recombinant Der p 1 |  |
| GDPN S R G K S R E Y L S (GDPNSRGKSREYLS; numbers in words are those of the source; also: displayed on T7 phage) [Clone 2c7pan14] |  |  |  | 1800 | specifically inhibited |  |  |  |
| BGF 13: SCL/E47 peptide blocker; fusion peptide SEQ ID NO: 71, fragment-encoded SEQ ID NO: 73; H. influenzae fragment (MGKPIPNPLLGLDSTQAMGAPPKKKRKVAEFGFCSNQMREM) | + | − | − |  |  |  |  |  |
| GDPN S S S V D K L G Y W R V T E S S N E (GDPNSSSVDKLGYWRVTESSNE; numbers in words are those of the source; also: displayed on T7 phage) [Clone 2c7pan42] |  |  |  | 64000 | only partially inhibited | an anti-Der p 1 immune response was induced | inhibited by the addition of recombinant Der p 1 | higher levels of inhibition |
| BGF 05: non-specific blocker clone; fusion peptide SEQ ID NO: 63, fragment-encoded SEQ ID NO: 65; H. influenzae fragment (MGKPIPNPLLGLDSTQAMGAPPKKKRKVAEFARTTTTRLINQSVVRKIWLYRDAR) | + | + | + |  |  |  |  |  |
| BGF 35: SCL/E47 peptide blocker; fusion peptide SEQ ID NO: 79, fragment-encoded SEQ ID NO: 81; H. influenzae fragment (peptide) MGKPIPNPLLGLDSTQAMGAPPKKKRKVAEFQGRRRQGLSINQWLEKYGYIEMQGNETFKLAVRELSNVVEETLLANNLDKKDLDWLVVVVLVV | + | − | − |  |  |  |  |  |
